Results taken from patent US11519017B2, “Kit for diagnosing infection with Methicillin-resistant Staphylococcus aureus (MRSA) by detecting magnesium ions” (Bioacts Corporation, priority 2017, dated 2022).
Entries after “also recorded” stand apart in the source; their conditions may differ.

Experiments:
Assay type in all cases: physicochemical
[1] = Evaluation of molar absorption coefficient (UV-vis); settings: for Molar absorption coefficient: deionized water, UV-vis spectrometer; for absorption coefficient relative to HNB: times higher than that of HNB
Experimental: HNB and 9 types of candidate substances were dissolved in deionized water to prepare 100 μg/ml of a stock and then diluted with deionized water to prepare samples of 50, 25 and 12.5 μg/ml. Next, an absorption spectrum was obtained using an analyzer UV-vis spectrometer (Agilent 8453), and then absorption coefficient values at a concentration of […] were measured and shown in Table 1 below.

[2] = Evaluation of magnesium ion detection characteristics and pH stability (color development, 96 well plate); settings: sodium phosphate buffer pH 4, 7, 9, 11; specimen 120 μM
Experimental: 200 mM of a magnesium chloride solution was prepared by dissolving 0.9521 g of magnesium chloride in 50 ml of deionized water.
59.99 mg of sodium phosphate monobasic and 70.98 mg of sodium phosphate dibasic were dissolved in 50 ml of distilled water to prepare 10 mM of a sodium phosphate buffer solution, and then 28.85 ml of a sodium phosphate monobasic solution and 21.15 ml of a sodium phosphate dibasic solution were mixed to prepare a sodium phosphate buffer solution at pH 7. In a similar manner, the two solutions were mixed to prepare sodium phosphate buffer solutions having acidity of pH 4, pH 7, pH 9, and pH 11, respectively.
For determination of color development, the HNB and the candidate substance were prepared at concentrations of 240 μM and used for the test.
Hydroxynaphthalene blue (HNB) and 9 types of water-soluble candidate substances selected by the solubility test were diluted with distilled water to prepare specimens at concentrations of 240 μM, respectively.
It was confirmed whether the candidate substances according to the present invention reacted with magnesium ions to be color-developed (discolored). In addition, pH stability was confirmed according to whether the candidate substances were specifically color-developed by reacting only with magnesium ions regardless of a pH change.
The color development of the control (HNB) and […] of candidate substances was confirmed under conditions of blank, a MgCl2 solution, pH 4, pH 7, pH 9, and pH 11 using a 96 well plate (12×6 holes). Specifically, 100 μl of deionized water (blank) was added in a first row of the plate, 100 μl of the MgCl2 solution was added in a second row thereof, and 100 μl of each of solutions at pH 4, pH 7, pH 9, and pH 11 was added in third to sixth rows thereof using 10 mM of the sodium phosphate buffer solution prepared in step a) above. In columns of the plate, 100 μl of specimens prepared at a concentration of 240 μM were added to 6 rows, respectively, and a total of 36 specimens were screened. […]

[3] = Evaluation of magnesium ion sensitivity at concentration of less than 10 mM
Experimental: Magnesium chloride was dissolved in deionized water and diluted to 8, 10, 12, 14 and 16 mM, respectively, to prepare specimens. Next, as the dye compounds, the HNB and the compound of Chemical Formula 2 were prepared at a concentration of 240 μM, but the compounds of Chemical Formulas 3 and 4 were prepared to be diluted at a concentration of 120 μM by 50% because the molar absorption coefficient of the compounds was two times higher than that of the control (HNB).
In each row of a 96-well plate, […] of the dye compound was filled, and in each column, […] of a diluted magnesium chloride solution was filled, and then the color changes were observed and absorbance was measured. The final concentrations of magnesium chloride in the 96-well plate were 0, 4, 5, 6, 7, and 8 mM, and the final concentrations of HNB and Chemical Formula 2 were 120 μM, respectively, and the final concentrations of Chemical Formulas 3 and 4 were 60 μM, respectively.

Solubility test in water = settings: 10 mg dissolved in 1 ml of deionized water
Experimental: The solubility in water was measured to confirm the solubility of the synthesized candidate compounds. Specifically, 10 mg of hydroxynaphthalene blue (HNB), which is a compound known to be developed by magnesium ions as a control, and 10 mg of each of the candidate compounds were dissolved in 1 ml of deionized water, and then the solubility was confirmed.
Various color developing dyes represented by Chemical Formula 1 above were dissolved in distilled water (D.W) and the solubility was tested to select a compound having high solubility. The selected compound was diluted at each concentration (100 uM, 50 uM, 25 uM, 12.5 uM, 6.25 uM, and 3.13 uM) and the reaction sensitivity with magnesium (magnesium concentration of 100 mM, 10 mM) by concentration was tested.

| Compound | Molar absorption coefficient [1] | pH stability (color development with pH change in the absence of magnesium ions) [2] | further results |
| --- | --- | --- | --- |
| O=[N+]([O-])c1ccc(O)c(N=Nc2cc(S(=O)(=O)O)c3ccccc3c2O)c1 [Chemical Formula 2] | 12,000 | developed to a color clearly different from that in the presence of magnesium ions under neutral to basic conditions |  |
| Nc1ccc2c(O)c(N=Nc3ccc([N+](=O)[O-])cc3O)c(S(=O)(=O)O)cc2c1 [Chemical Formula 3] | 44,000 | excellent; also recorded: without being influenced by the pH change | absorption coefficient relative to HNB [1]: 3.38 times; absorption spectrum position after shift by magnesium ions ([3]; with magnesium ions): 640 nm; absorption spectrum position before shift by magnesium ions ([3]; without magnesium ions): 500 nm |
| O=[N+]([O-])c1cc(N=Nc2c(S(=O)(=O)O)cc3cc(Nc4ccccc4)ccc3c2O)c(O)c([N+](=O)[O-])c1 [Chemical Formula 4] | 31,000 | excellent; also recorded: without being influenced by the pH change | absorption coefficient relative to HNB [1]: 2.38 times |
| CC1=NN(c2ccccc2)C(O)C1N=Nc1cc([N+](=O)[O-])cc(S(=O)(=O)O)c1O (centres unmarked) [Chemical Formula 5] | 33,579 |  |  |
| O=[N+]([O-])c1cc(N=Nc2c(O)cccc2O)c(O)c(S(=O)(=O)O)c1 [Chemical Formula 6] | 18,000 |  |  |
| O=[N+]([O-])c1cc(N=Nc2c(S(=O)(=O)O)cc3cc(Nc4ccccc4)ccc3c2O)c(O)c(S(=O)(=O)O)c1 [Chemical Formula 7] | 25,000 |  |  |
| O=[N+]([O-])c1cc(N=Nc2c(O)ccc3ccccc23)c(O)c([N+](=O)[O-])c1 [Chemical Formula 8] | 5,117 |  |  |
| O=[N+]([O-])c1cc(S(=O)(=O)O)cc(N=Nc2cc(S(=O)(=O)[O-])c3ccccc3c2O)c1O.[Na+] [Chemical Formula 9] | 23,000 |  |  |
| hydroxynaphthalene blue [HNB, reference compound] | 13,000 |  | solubility in water (Solubility test in water): dissolved in water |
